We go through 5 compounds from patent US9126983B2, “Extracts from kibdelos porangium as antibacterial agents” (Merck Sharp & Dohme Corp., priority 2009, dated 2015).

The subject of experiment [1] is Clostridium difficile (ATCC 43596). The experiment can be described thus: Agar dilution MIC, Clostridium difficile ATCC 43596. The class given is cell-based. The note with it: Clostridioides difficile, ATCC43596, 48 h. How it is done:
(§1) Drug dilutions and drug-supplemented agar plates were prepared manually.
(§2) The growth and test media were those recommended by the Clinical and Laboratory Standards Institute (CLSI) for growth and susceptibility testing of anaerobes. See Clinical and Laboratory Standards Institute (CLSI). Methods for Antimicrobial Susceptibility Testing of Anaerobic Bacteria; Approved Standard—Seventh Edition. CLSI document M11-A7 [ISBN1-56238-626-3]. Clinical and Laboratory Standards Institute, 940 West Valley Road, Suite 1400, Wayne, Pa. 19087-1898 USA, 2007.
(§3) This medium is referred to as Supplemented Brucella Agar (SBA).
(§4) The media were prepared as follows: Brucella agar was weighed and water was added to the final volume minus the volume of the hemin, vitamin K, and lysed sheep blood. The agar was dissolved by boiling. Hemin (5 μg/ml) and vitamin K (1 μg/ml) were added to the agar and it was autoclaved for 23 minutes at 121° C. The agar was allowed to cool to 50° C. and 18.5 ml was dispensed into sterile glass tubes. Immediately prior to pouring the plates 1 ml of lysed sheep blood and 0.5 ml of the appropriate drug dilution were added to the tube. The contents of the tube were gently mixed by inverting the tube, and the drug-supplemented agar was poured into a petri dish. […]
(§5) The inocula for the MIC assay were prepared inside the Bactron II anaerobe chamber, as follows. […] The MIC was read per CLSI guidelines.
For orientation: In agar dilution the substance is mixed into plates at graded concentrations.

For experiment [2], the system named is Clostridium difficile (ATCC 700057). The experiment can be described thus: Agar dilution MIC, Clostridium difficile ATCC 700057. Format: cell-based. The note with it: Clostridioides difficile. How it is done:
as §1, §2, §3, §4, §5

Experiment [3] deals with Bacillus subtilis (MB964). The experiment can be described thus: Microbroth dilution MIC, Bacillus subtilis. Format: cell-based. The note with it: cation-adjusted Mueller Hinton broth, no visible growth; for MIC: read-out: MIC-100. An excerpt: (§6) Selected isolates were subcultured onto either […] […] Isolates were subcultured twice before assay. […] Plates were read to no growth.
For orientation: Dilution methods test growth across graded concentrations, often in twofold steps.

The subject of experiment [4] is Staphylococcus aureus (MB2865). The experiment can be described thus: Microbroth dilution MIC, Staphylococcus aureus MB2865. The class given is cell-based. The following applies: cation-adjusted Mueller Hinton broth, no visible growth. An excerpt:
The Staphylococcus aureus strains used were obtained from the Merck Culture Collection, and are identified as MB2865 and MB5957. […] Selected isolates were subcultured onto either […] Isolates were subcultured twice before assay. […] Plates were read to no growth.

Experiment [5] relates to Enterococcus faecalis (CL8516). In words: Microbroth dilution MIC, Enterococcus faecalis. The note with it: cation-adjusted Mueller Hinton broth, no visible growth. Format: cell-based.
The test system of experiment [6] is Streptococcus pneumoniae (CL2883). In words: Microbroth dilution MIC, Streptococcus pneumoniae. The class given is cell-based. The note with it: cation-adjusted Mueller Hinton broth + lysed horse blood.
Experiment [7] concerns Haemophilus influenzae (MB4572). In words: Microbroth dilution MIC, Haemophilus influenzae. Format: cell-based. The following applies: Haemophilus test medium; for MIC: read-out: MIC-100. An excerpt:
The strain of Haemophilus influenzae is a mouse pathogen used for in vivo testing at Merck. Selected isolates were subcultured onto either […] […] Isolates were subcultured twice before assay. […] Plates were read to no growth.

In experiment [8] the test system is Candida albicans (MY1055). In words: Microbroth dilution MIC, Candida albicans control. Format: cell-based. The note with it: Candida albicans (MY1055) control strain, RPMI 1640; for MIC: read-out: MIC-100.
Description: as §6

Experiment [9] deals with Escherichia coli envA1 tolC (MB5746). The following applies: cell-wall permeable strain, cation-adjusted Mueller Hinton broth.
The test system of experiment [10] is Clostridium difficile (ATCC 700057). The following applies: published CLSI quality control range; cited from earlier work.
In experiment [11] the test system is Escherichia coli envA1 tolC (MB5746). The experiment can be described thus: microbe, parasite or virus in culture. The note with it: read-out: MIC-100.

≈ marks a conversion by molar mass, not a printed value. Like-named read-outs stand apart in the source and are kept apart here.

Regarding `Cc1ncc([N+](=O)[O-])n1CCO` [Metronidazole], the MIC in experiment [1] stood at 0.25 µg/mL (≈ 1.46 µM); in [2] (ATCC700057, Clostridium difficile (ATCC 700057), agar dilution, Supplemented Brucella Agar, anaerobic, 35° C., 48 h, read-out: MIC), 0.25 µg/mL (≈ 1.46 µM).
Take `CC1(C)S[C@@H]2[C@H](NC(=O)Cc3ccccc3)C(=O)N2[C@H]1C(=O)O` [Penicillin G]: the MIC-100 is less than 0.06 µg/mL in [3]; less than 0.06 µg/mL in [4]; 0.5 µg/mL (≈ 1.5 µM) in [5]; less than 0.06 µg/mL in experiment [6]; 0.25 µg/mL (≈ 0.748 µM) in experiment [7]; more than 64 µg/mL in experiment [8]. Also, the MIC-100 in experiment [9] turned out to be 8 µg/mL (≈ 23.9 µM).
As for `CN[C@H](CC(C)C)C(=O)N[C@H]1C(=O)N[C@@H](CC(N)=O)C(=O)N[C@H]2C(=O)N[C@H]3C(=O)N[C@H](C(=O)N[C@H](C(=O)O)c4cc(O)cc(O)c4-c4cc3ccc4O)[C@H](O)c3ccc(c(Cl)c3)Oc3cc2cc(c3O[C@@H]2O[C@H](CO)[C@@H](O)[C@H](O)[C@H]2O[C@H]2C[C@](C)(N)[C@H](O)[C@H](C)O2)Oc2ccc(cc2Cl)[C@H]1O` [Vancomycin, vancomycin], the MIC in experiment [1] is 1 µg/mL (≈ 0.69 µM); in [2] (ATCC700057, 48 h), 2 µg/mL (≈ 1.38 µM). In addition, the “CLSI quality control range (MIC)” value in experiment [10] was 2 (0.5-4)^1 μg/mL.
Consider `O=C(O)c1cn(C2CC2)c2cc(N3CCNCC3)c(F)cc2c1=O` [Ciprofloxacin], for which the MIC in experiment [3] is 0.06 µg/mL (≈ 0.181 µM); in experiment [7], less than 0.015 µg/mL; in experiment [8], more than 16 µg/mL.
Take `CC[C@H]1OC(=O)[C@H](C)[C@@H](O[C@H]2C[C@@](C)(OC)[C@@H](O)[C@H](C)O2)[C@H](C)[C@@H](O[C@@H]2O[C@H](C)C[C@H](N(C)C)[C@H]2O)[C@](C)(OC)C[C@@H](C)C(=O)[C@H](C)[C@@H](O)[C@]1(C)O` [Clarithromycin]: the MIC in experiment [3] was 0.06 µg/mL (≈ 0.0802 µM); in experiment [4] (read-out: MIC-100), 0.12 µg/mL (≈ 0.16 µM); in experiment [5] (read-out: MIC-100) it was 2 µg/mL (≈ 2.67 µM); in [6] (read-out: MIC-100), 0.03 µg/mL; in [7], 4 µg/mL (≈ 5.35 µM); in experiment [8], more than 16 µg/mL. For the same compound, in [11], the MIC was 0.12 µg/mL (≈ 0.16 µM).
